Assay results: US10966978B2, “Dose and regimen for HDM2-p53 interaction inhibitors” (Novartis AG, priority 2016, dated 2021)
Like-named read-outs stand apart in the source and are kept apart here.

System: patients with advanced TP53 wild-type (WT) leukemias
From the text: Patients with Ph+ ALL who show early markers of relapse in MRD surveillance can be considered for inclusion as long as other therapies such as TKIs are exhausted or cannot be given. • Tumor of the patient is TP53 wt characterized by, at a minimum, no mutations in exons 5, 6, 7 and 8, and the p53 status was obtained from a bone-marrow sample, collected no longer than 3 months before signing the main ICF. Safety and Tolerability Profile of Regimen 1B in Hematological Tumors

COc1ncc(-c2nc3c(n2C(C)C)[C@H](c2ccc(Cl)cc2)N(c2cc(Cl)cn(C)c2=O)C3=O)c(OC)n1 [HDM201, (S)-5-(5-Chloro-1-methyl-2-oxo-1,2-dihydro-pyridin-3-yl)-6-(4-chloro-phenyl)-2-(2,4-dimethoxy-pyrimidin-5-yl)-1-isopropyl-5,6-dihydro-1H-pyrrolo[3,4-d]imidazol-4-one]
AE: Iron Overload (Regimen 1A N = 16, Grade 3/4): 0 n (%) | AE: Leukopenia (Regimen 1A N = 16, Grade 3/4): 2 (12.5) n (%) | AE: Lip Oedema (Regimen 1A N = 16, Grade 3/4): 0 n (%) | AE: Lipase Increased (Regimen 1A N = 16, Grade 3/4): 2 (12.5) n (%) | AE: Macular Oedema (Regimen 1A N = 16, Grade 3/4): 0 n (%) | AE: Malaise (Regimen 1A N = 16, Grade 3/4): 0 n (%) | AE: Mouth Haemorrhage (Regimen 1A N = 16, Grade 3/4): 0 n (%) | AE: Nausea (Regimen 1A N = 16, Grade 3/4): 0 n (%) | AE: Neutropenia/Neutrophil Count Decreased (Regimen 1A N = 16, Grade 3/4): 6 (37.5) n (%) | AE: Oedema (Regimen 1A N = 16, Grade 3/4): 0 n (%) | AE: Oral Disorder (Regimen 1A N = 16, Grade 3/4): 0 n (%) | AE: Pain In Extremity (Regimen 1A N = 16, Grade 3/4): 0 n (%) | AE: Pancytopenia (Regimen 1A N = 16, Grade 3/4): 0 n (%) | AE: Pneumonia (Regimen 1A N = 16, Grade 3/4): 0 n (%) | AE: Pollakiuria (Regimen 1A N = 16, Grade 3/4): 0 n (%) | AE: Pyrexia (Regimen 1A N = 16, Grade 3/4): 0 n (%) | AE: Rash (Regimen 1A N = 16, Grade 3/4): 0 n (%) | AE: Rash Erythematous (Regimen 1A N = 16, Grade 3/4): 0 n (%) | AE: Rash Papular (Regimen 1A N = 16, Grade 3/4): 0 n (%) | AE: Rectal Haemorrhage (Regimen 1A N = 16, Grade 3/4): 0 n (%) | AE: Renal Failure (Regimen 1A N = 16, Grade 3/4): 0 n (%) | AE: Skin Exfoliation (Regimen 1A N = 16, Grade 3/4): 0 n (%) | AE: Stomatitis (Regimen 1A N = 16, Grade 3/4): 1 (6.3) n (%) | AE: Subarachnoid Haemorrhage (Regimen 1A N = 16, Grade 3/4): 1 (6.3) n (%) | AE: Thrombocytopenia/Platelet Count Decreased (Regimen 1A N = 16, Grade 3/4): 8 (50.0) n (%) | AE: Total (Regimen 1A N = 16, Grade 3/4): 12 (75.0) n (%) | AE: Tumour Lysis Syndrome (Regimen 1A N = 16, Grade 3/4): 7 (43.8) n (%) | AE: Vomiting (Regimen 1A N = 16, Grade 3/4): 0 n (%) | AE: Weight Decreased (Regimen 1A N = 16, Grade 3/4): 0 n (%) | AE: White Blood Cell Count Decreased (Regimen 1A N = 16, Grade 3/4): 0 n (%) | AE: Abdominal Discomfort (Regimen 1B N = 6, All Grades): 0 n (%) | AE: Abdominal Pain (Regimen 1B N = 6, All Grades): 0 n (%) | AE: Abdominal Pain Upper (Regimen 1B N = 6, All Grades): 0 n (%) | AE: Acute Kidney Injury (Regimen 1B N = 6, All Grades): 1 (16.7) n (%) | AE: Amylase Increased (Regimen 1B N = 6, All Grades): 0 n (%) | AE: Anaemia (Regimen 1B N = 6, All Grades): 2 (33.3) n (%) | AE: Arthralgia (Regimen 1B N = 6, All Grades): 0 n (%) | AE: Asthenia (Regimen 1B N = 6, All Grades): 1 (16.7) n (%) | AE: Atrial Fibrillation (Regimen 1B N = 6, All Grades): 0 n (%) | AE: Atypical Pneumonia (Regimen 1B N = 6, All Grades): 0 n (%) | AE: Balanitis Candida (Regimen 1B N = 6, All Grades): 0 n (%) | AE: Blood Alkaline Phosphatase Increased (Regimen 1B N = 6, All Grades): 0 n (%) | AE: Blood Bilirubin Increased (Regimen 1B N = 6, All Grades): 1 (16.7) n (%) | AE: Blood Creatinine Increased (Regimen 1B N = 6, All Grades): 0 n (%) | AE: Blood Phosphorus Increased (Regimen 1B N = 6, All Grades): 1 (16.7) n (%) | AE: Blood Uric Acid Increased (Regimen 1B N = 6, All Grades): 0 n (%) | AE: Bone Marrow Failure (Regimen 1B N = 6, All Grades): 0 n (%) | AE: C-Reactive Protein Increased (Regimen 1B N = 6, All Grades): 0 n (%) | AE: Cardiac Failure (Regimen 1B N = 6, All Grades): 0 n (%) | AE: Cellulitis (Regimen 1B N = 6, All Grades): 1 (16.7) n (%) | AE: Chronic Graft Versus Host Disease (Regimen 1B N = 6, All Grades): 0 n (%) | AE: Conjunctival Haemorrhage (Regimen 1B N = 6, All Grades): 0 n (%) | AE: Constipation (Regimen 1B N = 6, All Grades): 1 (16.7) n (%) | AE: Cough (Regimen 1B N = 6, All Grades): 0 n (%) | AE: Cystitis Viral (Regimen 1B N = 6, All Grades): 0 n (%) | AE: Cytomegalovirus Infection (Regimen 1B N = 6, All Grades): 0 n (%) | AE: Decreased Appetite (Regimen 1B N = 6, All Grades): 1 (16.7) n (%) | AE: Diarrhoea (Regimen 1B N = 6, All Grades): 0 n (%) | AE: Dyspepsia (Regimen 1B N = 6, All Grades): 0 n (%) | AE: Dyspnoea (Regimen 1B N = 6, All Grades): 0 n (%) | AE: Epistaxis (Regimen 1B N = 6, All Grades): 0 n (%) | AE: Fatigue (Regimen 1B N = 6, All Grades): 0 n (%) | AE: Febrile Neutropenia (Regimen 1B N = 6, All Grades): 2 (33.3) n (%) | AE: Gamma-Glutamyltransferase Increased (Regimen 1B N = 6, All Grades): 0 n (%) | AE: General Physical Health Deterioration (Regimen 1B N = 6, All Grades): 0 n (%) | AE: Gingival Bleeding (Regimen 1B N = 6, All Grades): 0 n (%) | AE: Graft Versus Host Disease (Regimen 1B N = 6, All Grades): 0 n (%) | AE: Haemoglobin Decreased (Regimen 1B N = 6, All Grades): 0 n (%) | AE: Headache (Regimen 1B N = 6, All Grades): 1 (16.7) n (%) | AE: Hyperbilirubinaemia (Regimen 1B N = 6, All Grades): 1 (16.7) n (%) | AE: Hyperglycaemia (Regimen 1B N = 6, All Grades): 0 n (%) | AE: Hyperkalaemia (Regimen 1B N = 6, All Grades): 1 (16.7) n (%) | AE: Hyperphosphataemia (Regimen 1B N = 6, All Grades): 1 (16.7) n (%) | AE: Hyperuricaemia (Regimen 1B N = 6, All Grades): 2 (33.3) n (%) | AE: Hypoalbuminaemia (Regimen 1B N = 6, All Grades): 0 n (%) | AE: Hypocalcaemia (Regimen 1B N = 6, All Grades): 0 n (%) | AE: Hypokalaemia (Regimen 1B N = 6, All Grades): 1 (16.7) n (%) | AE: Hypomagnesaemia (Regimen 1B N = 6, All Grades): 0 n (%) | AE: Hyponatraemia (Regimen 1B N = 6, All Grades): 1 (16.7) n (%) | AE: Hypophosphataemia (Regimen 1B N = 6, All Grades): 0 n (%) | AE: Hypotension (Regimen 1B N = 6, All Grades): 0 n (%) | AE: Infection (Regimen 1B N = 6, All Grades): 0 n (%) | AE: Infective Glossitis (Regimen 1B N = 6, All Grades): 0 n (%) | AE: Iron Overload (Regimen 1B N = 6, All Grades): 0 n (%) | AE: Leukopenia (Regimen 1B N = 6, All Grades): 0 n (%) | AE: Lip Oedema (Regimen 1B N = 6, All Grades): 0 n (%) | AE: Lipase Increased (Regimen 1B N = 6, All Grades): 0 n (%) | AE: Macular Oedema (Regimen 1B N = 6, All Grades): 1 (16.7) n (%) | AE: Malaise (Regimen 1B N = 6, All Grades): 0 n (%) | AE: Mouth Haemorrhage (Regimen 1B N = 6, All Grades): 0 n (%) | AE: Nausea (Regimen 1B N = 6, All Grades): 4 (66.7) n (%) | AE: Neutropenia/Neutrophil Count Decreased (Regimen 1B N = 6, All Grades): 1 (16.7) n (%) | AE: Oedema (Regimen 1B N = 6, All Grades): 0 n (%) | AE: Oedema Peripheral (Regimen 1B N = 6, All Grades): 1 (16.7) n (%) | AE: Oral Disorder (Regimen 1B N = 6, All Grades): 0 n (%) | AE: Pain In Extremity (Regimen 1B N = 6, All Grades): 0 n (%) | AE: Pancytopenia (Regimen 1B N = 6, All Grades): 1 (16.7) n (%) | AE: Pneumonia (Regimen 1B N = 6, All Grades): 0 n (%) | AE: Pollakiuria (Regimen 1B N = 6, All Grades): 0 n (%) | AE: Pyrexia (Regimen 1B N = 6, All Grades): 0 n (%) | AE: Rash (Regimen 1B N = 6, All Grades): 0 n (%) | AE: Rash Erythematous (Regimen 1B N = 6, All Grades): 0 n (%) | AE: Rash Papular (Regimen 1B N = 6, All Grades): 0 n (%) | AE: Rectal Haemorrhage (Regimen 1B N = 6, All Grades): 1 (16.7) n (%) | AE: Renal Failure (Regimen 1B N = 6, All Grades): 0 n (%) | AE: Skin Exfoliation (Regimen 1B N = 6, All Grades): 0 n (%)
